Laboratory results reported in patent US20240285634A1, “COMPOUND AND METHOD FOR TREATING CHEMOTHERAPY-ASSOCIATED GASTROINTESTINAL SIDE EFFECTS” (ONQUALITY PHARMACEUTICALS CHINA LTD., priority 2021, published 2024).
Where a name gives a salt, the structure may show the parent alone.

How the values were obtained:
[1] = system: Balb/c mice, diarrhea caused by continuous administration of a chemotherapeutic agent; assay: Relieving effect on diarrhea caused by the continuous administration of a chemotherapeutic agent (Examples 365-384); type: in vivo
Text: Balb/c mice were fed for 1 week, and then divided into groups. The experiment was divided into a control group, a chemotherapeutic agent group, and a group of the compound as shown in Formula I, each of which comprised 10 mice, to perform the administration experiment, for which the administration dosage, mode, time and frequency were shown in Table 5. The control group: being injected or intragastrically administered with the same solvent as that used in the group of the compound as shown in Formula I (the administration mode and time were shown in Table 5), and then being injected or intragastrically administered with the same solvent as that used in the chemotherapeutic agent group (the administration mode was shown in Table 5); the chemotherapeutic agent group: being injected or intragastrically administered with the same solvent as that used in the group of the compound as shown in Formula I (the administration mode and time were shown in Table 5), and then being injected or intragastrically administered with the chemotherapeutic agent (the type, administration mode, time and dosage were shown in Table 5); the group of the compound as shown in Formula I: being injected or intragastrically administered with the compound as shown in Formula I (the administration mode and time were shown in Table 5), and then being administered with the chemotherapeutic agent (the type, administration mode, time and dosage were shown in Table 5).
The scoring of diarrhea can refer to the method of Akinobu Kurita (Cancer Chemother Pharmacol 2000; 46:211-20.), Grade 0): normal feces; Grade 1: mild diarrhea, the stools is slightly wet and soft; Grade 2: moderate diarrhea, loose stools and mild perianal contamination; Grade 3: severe diarrhea, watery stools and accompanied by severe perianal staining (see FIG. 1). It is regarded as effective remission when the diarrhea grading of mice in the group of the compound as shown in Formula I is reduced compared with the average diarrhea grading of mice in the chemotherapeutic agent group.
The diarrhea grading of mice was observed and recorded every day. At the end of the experiment, the number of mice in the group of the compound as shown in Formula I whose diarrhea grading was lower than that of mice in the chemotherapeutic agent group was recorded. Table 5 lists various animal experiment combinations of chemotherapeutic agents and the compound as shown in Formula I, as well as the corresponding experimental results. (Relative remission rate %=the number of mice in the group of the compound as shown in Formula I whose diarrhea has been effectively relieved/the total number of mice in the group of the compound as shown in Formula I*100%. The establishment rate of diarrhea model in the chemotherapeutic agent group was 50%-80%, that is, about 5-8 of 10 mice developed diarrhea during the experiment, and there were cases of individual mice death or not developing diarrhea.)

[2] = system: Balb/c mice, constipation caused by continuous administration of a chemotherapeutic agent; assay: Relieving effect on constipation caused by the continuous administration of a chemotherapeutic agent (Examples 385-405); type: in vivo
Text: Balb/c mice were fed for 1 week, and then divided into groups. The experiment was divided into a control group, a chemotherapeutic agent group, and a group of the compound as shown in Formula I, each of which comprised 10 mice, to perform the administration experiment, for which the administration dosage, mode, time and frequency were shown in Table 6. The control group: being injected or intragastrically administered with the same solvent as that used in the group of the compound as shown in Formula I (the administration mode and time were shown in Table 6), and then being injected or intragastrically administered with the same solvent as that used in the group of the compound as shown in Formula I (the administration mode was shown in Table 6); the chemotherapeutic agent group: being injected or intragastrically administered with the same solvent as that used in the group of the compound as shown in Formula I (the administration mode and time were shown in Table 6), and then being injected or intragastrically administered with the chemotherapeutic agent (the type, administration mode, time and dosage were shown in Table 6); the group of the compound as shown in Formula I: being injected or intragastrically administered with the compound as shown in Formula I (the administration mode and time were shown in Table 6), and then being administered with the chemotherapeutic agent (the type, administration mode, time and dosage were shown in Table 6).
The feces reduction rate was calculated with reference to the method of Ji Eun Kim (Lab Anim Res. 2016 December; 32(4): 231-240.). Feces reduction rate (%)=(the control group−the chemotherapeutic agent group or the group of the compound as shown in Formula I)/the control group*100%
It is regarded as effective remission when the feces reduction rate of mice in the group of the compound as shown in Formula I is reduced compared with that in the chemotherapeutic agent group.
The feces amount of mice within 3 hours was observed and recorded every day. At the end of the experiment, the number of mice in the group of the compound as shown in Formula I whose feces reduction rate was lower than that of mice in the chemotherapeutic agent group was recorded. Table 6 lists various animal experiment combinations of chemotherapeutic agents and the compound as shown in Formula I, as well as the corresponding experimental results.

[3] = continuous administration of the chemotherapeutic agent for 7 days or less

## CN1CCN(c2ccc(Nc3ncc4cc5n(c4n3)C3(CCCCC3)CNC5=O)nc2)CC1 [Compound I hydrochloride, Trilaciclib dihydrochloride]
[1]; Example 373, Fluorouracil (5-Fu) intraperitoneal injection 70 mg/kg once a day for 5 days, compound intraperitoneal injection 150 mg/kg single, 2 h before chemotherapeutic agent, cycle 9 days
  Relative remission rate (%): 60%
[1]; Example 374, Fluorouracil (5-Fu) intraperitoneal injection 70 mg/kg once a day for 5 days, compound intraperitoneal injection 150 mg/kg single, 4 h before chemotherapeutic agent, cycle 9 days
  Relative remission rate (%): 30%
[1]; Example 375, Fluorouracil (5-Fu) intraperitoneal injection 70 mg/kg once a day for 5 days, compound intraperitoneal injection 150 mg/kg single, 8 h before chemotherapeutic agent, cycle 9 days
  Relative remission rate (%): 10%
[2]; Example 393, Fluorouracil (5-Fu) 100 mg/kg intraperitoneal injection once a day for 5 days, compound 150 mg/kg intraperitoneal injection once a day for 5 days, 0.5 h before the chemotherapeutic agent, experimental cycle 9 days
  Relative remission rate (%): 70%
[2]; Example 394, Fluorouracil (5-Fu) 100 mg/kg intraperitoneal injection once a day for 5 days, compound 150 mg/kg intraperitoneal injection once a day for 5 days, 4 h before the chemotherapeutic agent, experimental cycle 9 days
  Relative remission rate (%): 50%
[2]; Example 395, Fluorouracil (5-Fu) 100 mg/kg intraperitoneal injection once a day for 5 days, compound 150 mg/kg intraperitoneal injection once a day for 5 days, 12 h before the chemotherapeutic agent, experimental cycle 9 days
  Relative remission rate (%): 30%

## CN1CCN(c2ccc(Nc3ncc4cc5n(c4n3)C3(CCCCC3)CNC5=O)nc2)CC1 [Compound I, Trilaciclib]
[1]; Example 365, Fluorouracil (5-Fu) intraperitoneal injection 70 mg/kg once a day, for 3 days, compound intravenous injection 100 mg/kg once a day, for 3 days, 2 h before chemotherapeutic agent, cycle 10 days
  Relative remission rate (%): 60%
[1]; Example 366, Fluorouracil (5-Fu) intraperitoneal injection 70 mg/kg once a day, for 3 days, compound intravenous injection 100 mg/kg once a day, for 3 days, 4 h before chemotherapeutic agent, cycle 10 days
  Relative remission rate (%): 40%
[1]; Example 367, Fluorouracil (5-Fu) intraperitoneal injection 70 mg/kg once a day, for 3 days, compound intravenous injection 100 mg/kg once a day, for 3 days, 6 h before chemotherapeutic agent, cycle 10 days
  Relative remission rate (%): 30%
[1]; Example 368, Fluorouracil (5-Fu) intraperitoneal injection 70 mg/kg once a day, for 3 days, compound intravenous injection 100 mg/kg once a day, for 3 days, 8 h before chemotherapeutic agent, cycle 10 days
  Relative remission rate (%): 20%
[1]; Example 369, Fluorouracil (5-Fu) intraperitoneal injection 70 mg/kg once a day, for 5 days, compound intraperitoneal injection 100 mg/kg once a day, for 5 days, 2 h before chemotherapeutic agent, cycle 9 days
  Relative remission rate (%): 50%
[1]; Example 370, Fluorouracil (5-Fu) intraperitoneal injection 70 mg/kg once a day, for 5 days, compound intraperitoneal injection 100 mg/kg once a day, for 5 days, 4 h before chemotherapeutic agent, cycle 9 days
  Relative remission rate (%): 30%
[1]; Example 371, Fluorouracil (5-Fu) intraperitoneal injection 70 mg/kg once a day, for 5 days, compound intraperitoneal injection 100 mg/kg once a day, for 5 days, 6 h before chemotherapeutic agent, cycle 9 days
  Relative remission rate (%): 20%
[1]; Example 372, Fluorouracil (5-Fu) intraperitoneal injection 70 mg/kg once a day, for 5 days, compound intraperitoneal injection 100 mg/kg once a day, for 5 days, 8 h before chemotherapeutic agent, cycle 9 days
  Relative remission rate (%): 10%
[1]; Example 376, Fluorouracil (5-Fu) intraperitoneal injection 70 mg/kg once a day, for 7 days, compound intraperitoneal injection 125 mg/kg once a day, for 7 days, 2 h before chemotherapeutic agent, cycle 10 days
  Relative remission rate (%): 10%
[1]; Example 383, Fluorouracil (5-Fu) intravenous injection 70 mg/kg once a day for 3 days, compound oral administration 100 mg/kg once a day, for 3 days, 6 h before chemotherapeutic agent, cycle 8 days
  Relative remission rate (%): 50%
[1]; Example 384, Fluorouracil (5-Fu) oral administration 50 mg/kg once a day, for 14 days, compound intraperitoneal injection 100 mg/kg once a day, for 14 days, 8 h before chemotherapeutic agent, cycle 14 days
  Relative remission rate (%): Ineffective
[1]; continuous administration of fluorouracil for 14 days
  relieving effect on diarrhea: ineffective
[1]; [3]
  relieving effects on diarrhea: have relieving effects
[1]; continuous administration of the chemotherapeutic agent for less than 7 days
  relieving effects on diarrhea: significant
[2]; Example 385, Fluorouracil (5-Fu) 100 mg/kg intraperitoneal injection once a day for 3 days, compound 100 mg/kg intravenous injection once a day for 3 days, 0.5 h before the chemotherapeutic agent, experimental cycle 7 days
  Relative remission rate (%): 70%
[2]; Example 386, Fluorouracil (5-Fu) 100 mg/kg intraperitoneal injection once a day for 3 days, compound 100 mg/kg intravenous injection once a day for 3 days, 4 h before the chemotherapeutic agent, experimental cycle 7 days
  Relative remission rate (%): 50%
[2]; Example 387, Fluorouracil (5-Fu) 100 mg/kg intraperitoneal injection once a day for 3 days, compound 100 mg/kg intravenous injection once a day for 3 days, 6 h before the chemotherapeutic agent, experimental cycle 7 days
  Relative remission rate (%): 40%
[2]; Example 388, Fluorouracil (5-Fu) 100 mg/kg intraperitoneal injection once a day for 3 days, compound 100 mg/kg intravenous injection once a day for 3 days, 8 h before the chemotherapeutic agent, experimental cycle 7 days
  Relative remission rate (%): 30%
[2]; Example 389, Fluorouracil (5-Fu) 100 mg/kg intraperitoneal injection once a day for 5 days, compound 100 mg/kg intraperitoneal injection once a day for 5 days, 0.5 h before the chemotherapeutic agent, experimental cycle 9 days
  Relative remission rate (%): 60%
[2]; Example 390, Fluorouracil (5-Fu) 100 mg/kg intraperitoneal injection once a day for 5 days, compound 100 mg/kg intraperitoneal injection once a day for 5 days, 12 h before the chemotherapeutic agent, experimental cycle 9 days
  Relative remission rate (%): 30%
[2]; Example 391, Fluorouracil (5-Fu) 100 mg/kg intraperitoneal injection once a day for 5 days, compound 100 mg/kg intraperitoneal injection once a day for 5 days, 20 h before the chemotherapeutic agent, experimental cycle 9 days
  Relative remission rate (%): 10%
[2]; Example 392, Fluorouracil (5-Fu) 100 mg/kg intraperitoneal injection once a day for 5 days, compound 100 mg/kg intraperitoneal injection once a day for 5 days, 24 h before the chemotherapeutic agent, experimental cycle 9 days
  Relative remission rate (%): 10%
[2]; Example 396, Fluorouracil (5-Fu) 100 mg/kg intravenous injection once a day for 3 days, compound 100 mg/kg oral administration once a day for 3 days, 4 h before the chemotherapeutic agent, experimental cycle 7 days
  Relative remission rate (%): 40%
[2]; Example 402, Fluorouracil (5-Fu) 100 mg/kg intraperitoneal injection once a day for 7 days, compound 125 mg/kg intraperitoneal injection once a day for 7 days, 2 h before the chemotherapeutic agent, experimental cycle 10 days
  Relative remission rate (%): 10%
[2]; Example 403, Fluorouracil (5-Fu) 100 mg/kg intraperitoneal injection once a day for 7 days, compound 125 mg/kg intraperitoneal injection once a day for 7 days, 4 h before the chemotherapeutic agent, experimental cycle 10 days
  Relative remission rate (%): 10%
[2]; Example 404, Fluorouracil (5-Fu) 100 mg/kg intraperitoneal injection once a day for 7 days, compound 125 mg/kg intraperitoneal injection once a day for 7 days, 6 h before the chemotherapeutic agent, experimental cycle 10 days
  Relative remission rate (%): 10%
[2]; Example 405, Fluorouracil (5-Fu) 100 mg/kg intraperitoneal injection once a day for 7 days, compound 125 mg/kg intraperitoneal injection once a day for 7 days, 8 h before the chemotherapeutic agent, experimental cycle 10 days
  Relative remission rate (%): 0%
[2]; continuous administration of fluorouracil for less than 7 days
  relieving effects on constipation: significant relieving effects
[2]; [3]
  relieving effects on constipation: have relieving effects

## CC(C)N1CCN(c2ccc(Nc3ncc4cc5n(c4n3)C3(CCCCC3)CNC5=O)nc2)CC1 [Compound IV hydrochloride, Lerociclibdihydrochloride]
[2]; Example 400, Fluorouracil (5-Fu) 100 mg/kg intraperitoneal injection once a day for 3 days, compound intraperitoneal injection, 2 h before the chemotherapeutic agent, dosage cell prints 'Once a day, for 3 days', frequency cell 'Single', experimental cycle 7 days
  Relative remission rate (%): 50%
[2]; Example 401, Fluorouracil (5-Fu) 100 mg/kg intraperitoneal injection once a day for 3 days, compound intraperitoneal injection, 12 h before the chemotherapeutic agent, dosage cell prints 'Once a day, for 3 days', frequency cell 'Single', experimental cycle 7 days
  Relative remission rate (%): 30%
